Data on six compounds can be found in BindingDB's records for doi:10.1016/j.bmcl.2008.10.124 (Schering-Plough Research Institute, 2009).

For orientation: Ki means a measure of affinity in units of concentration, obtained from inhibition or displacement.

This experiment deals with Genome polyprotein (Hepatitis C virus genotype 1a (isolate H77), UniProt P27958). The experiment can be described thus: Continuous Spectrophotometric Assay. Conditions: pH 6.5; 30 °C. On the procedure: Proteolytic cleavage of the ester linkage between the Nva (L-norvaline) and the chromophore (PAP) was monitored for change in absorbance at 370 nm. Initial velocities were determined using linear regression and kinetic constants were obtained by fitting the data to the Michaelis-Menten equation.
Genome polyprotein, sequence (P27958 1027-1657 limits assumed): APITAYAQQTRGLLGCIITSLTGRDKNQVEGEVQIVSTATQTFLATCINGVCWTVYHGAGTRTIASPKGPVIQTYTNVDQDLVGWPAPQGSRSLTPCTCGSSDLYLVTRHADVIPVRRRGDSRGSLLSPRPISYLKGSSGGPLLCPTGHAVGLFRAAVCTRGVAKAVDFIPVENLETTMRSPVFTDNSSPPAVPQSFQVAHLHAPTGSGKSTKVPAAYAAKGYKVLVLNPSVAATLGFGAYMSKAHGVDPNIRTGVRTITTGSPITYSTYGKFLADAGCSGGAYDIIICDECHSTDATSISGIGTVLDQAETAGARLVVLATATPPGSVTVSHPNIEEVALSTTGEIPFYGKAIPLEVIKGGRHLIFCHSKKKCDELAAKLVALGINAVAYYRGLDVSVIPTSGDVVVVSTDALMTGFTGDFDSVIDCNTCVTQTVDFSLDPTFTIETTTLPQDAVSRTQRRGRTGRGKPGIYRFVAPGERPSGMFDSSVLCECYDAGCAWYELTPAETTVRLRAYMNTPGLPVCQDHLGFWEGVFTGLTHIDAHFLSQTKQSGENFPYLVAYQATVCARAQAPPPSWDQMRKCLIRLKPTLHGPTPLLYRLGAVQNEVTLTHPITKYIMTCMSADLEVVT

For the compound `CN(C[C@@H](NC(=O)N[C@H](C(=O)N1C[C@H]2[C@@H]([C@H]1C(=O)N[C@@H](CC1CCC1)B1O[C@@H]3CC4CC(C4(C)C)[C@]3(C)O1)C2(C)C)C(C)(C)C)C(C)(C)C)S(C)(=O)=O` (stereo partly drawn) [(1R,2S,5S)-N-[(1R)-2-cyclobutyl-1-[(2S,6R)-2,9,9-trimethyl-3,5-dioxa-4-boratricyclo[6.1.1.0^{2,6}]decan-4-yl]ethyl]-3-[(2S)-2-({[(2S)-1-[methane(methyl)sulfonamido]-3,3-dimethylbutan-2-yl]carbamoyl}amino)-3,3-dimethylbutanoyl]-6,6-dimethyl-3-azabicyclo[3.1.0]hexane-2-carboxamide], the Ki is 0.5 nM.

In the case of `CC[C@H](NC(=O)C1[C@@H]2[C@H](CN1C(=O)[C@@H](NC(=O)NC(C)(C)C)C(C)(C)C)C2(C)C)B1O[C@@H]2CC3CC(C3(C)C)[C@]2(C)O1` (stereo partly drawn) [(1R,5S)-3-[(2S)-2-[(tert-butylcarbamoyl)amino]-3,3-dimethylbutanoyl]-6,6-dimethyl-N-[(1R)-1-[(2S,6R)-2,9,9-trimethyl-3,5-dioxa-4-boratricyclo[6.1.1.0^{2,6}]decan-4-yl]propyl]-3-azabicyclo[3.1.0]hexane-2-carboxamide], the Ki came to 380 nM.

In turn, `CC[C@H](NC(=O)[C@@H]1[C@@H]2[C@H](CN1C(=O)[C@@H](NC(=O)N[C@H](CN(C)S(C)(=O)=O)C(C)(C)C)C(C)(C)C)C2(C)C)B1O[C@@H]2CC3CC(C3(C)C)[C@]2(C)O1` (stereo partly drawn) [(1R,2S,5S)-3-[(2S)-2-({[(2S)-1-[methane(methyl)sulfonamido]-3,3-dimethylbutan-2-yl]carbamoyl}amino)-3,3-dimethylbutanoyl]-6,6-dimethyl-N-[(1R)-1-[(2S,6R)-2,9,9-trimethyl-3,5-dioxa-4-boratricyclo[6.1.1.0^{2,6}]decan-4-yl]propyl]-3-azabicyclo[3.1.0]hexane-2-carboxamide] registered a Ki of 34 nM. Against the preceding compound, the Ki is about 11-fold lower.

For the compound `CC(C)(C)NC(=O)N[C@H](C(=O)N1C[C@H]2[C@@H](C1C(=O)N[C@@H](CC1CCC1)B1O[C@@H]3CC4CC(C4(C)C)[C@]3(C)O1)C2(C)C)C(C)(C)C` (stereo partly drawn) [(1R,5S)-3-[(2S)-2-[(tert-butylcarbamoyl)amino]-3,3-dimethylbutanoyl]-N-[(1R)-2-cyclobutyl-1-[(2S,6R)-2,9,9-trimethyl-3,5-dioxa-4-boratricyclo[6.1.1.0^{2,6}]decan-4-yl]ethyl]-6,6-dimethyl-3-azabicyclo[3.1.0]hexane-2-carboxamide], the affinity, expressed as Ki, was 10 nM.

The compound `CC[C@H](NC(=O)[C@@H]1[C@@H]2[C@H](CN1C(=O)[C@@H](NC(=O)NC(C)(C)C)C(C)(C)C)C2(C)C)B1O[C@@H]2CC3CC(C3(C)C)[C@]2(C)O1` (stereo partly drawn) [(1R,2S,5S)-3-[(2S)-2-[(tert-butylcarbamoyl)amino]-3,3-dimethylbutanoyl]-6,6-dimethyl-N-[(1R)-1-[(2S,6R)-2,9,9-trimethyl-3,5-dioxa-4-boratricyclo[6.1.1.0^{2,6}]decan-4-yl]propyl]-3-azabicyclo[3.1.0]hexane-2-carboxamide] returned a Ki of 500 nM.

As to `CC(C)(C)NC(=O)N[C@H](C(=O)N1C[C@H]2[C@@H](C1C(=O)N[C@@H](CC1CCC1)B(O)O)C2(C)C)C(C)(C)C` (stereo partly drawn) [(1R,5S)-3-[(2S)-2-[(tert-butylcarbamoyl)amino]-3,3-dimethylbutanoyl]-N-[(1R)-2-cyclobutyl-1-(dihydroxyboranyl)ethyl]-6,6-dimethyl-3-azabicyclo[3.1.0]hexane-2-carboxamide], affinity was put at a Ki of 10 nM.
